Results as given in PMC12383012 (Antioxidants, 2025).
Entries after “also recorded” stand apart in the source; their conditions may differ.

What was measured:
[1] = target: T1, electric eel acetylcholinesterase (eeAChE) (Electrophorus electricus, UniProt O42275); experiment: Acetylcholinesterase inhibition (adapted Ellman's method); assay type: biochemical; settings: read-out: AChE Inhib IC50
T1 construct: purchased
Protocol: (§1) The enzyme inhibition of electric eel acetylcholinesterase (eeAChE) and equine butyrylcholinesterase (eqBChE) was performed according to an adaptation of Elmman’s method. Stock solutions of 1 mg of each compound in 1 mL MeOH were prepared, and adequate dilutions were further made for each ligand. A control measurement (5 replicates without a ligand) and a calibration curve of 5 points with 3 replicates per point were conducted. Each solution included fixed volumes of 4-(2-hydroxyethyl)-1-piperazine-ethanesulfonic acid (HEPES) and cholinesterase (eeAChE or eqBChE), with different volumes of ligand solution. A blank solution containing HEPES and MeOH was also prepared at the same time. After 15 min of reaction, […] (AChI) or butyrylcholine iodide (BChI) and 5,5’-dithiobis-(2-nitrobenzoic acid) (DTNB) were added to both solutions contained in spectrophotometer cuvettes, and the absorbance at 405 nm was recorded for 5 min (time interval = 1 s, slid width = 1 nm). The slope for each calibration point (absorbance versus reaction time) was determined, and the percent inhibition was calculated by using the equation: %Inhibition=100−(vi/v0×100). where vi is the reaction rate (slope) for each point of the calibration with the ligand, and v0 is the initial reaction rate (slope) for the control point (without ligand). Finally, the five-point linear regression (10–50 µL of ligand solution) corresponding to the percentage of enzyme inhibition vs. the compound concentration allowed for the determination of the half maximal inhibitory concentration (IC50, µM) (compound concentration for which enzyme activity is reduced to half). Experiments were performed twice for each ligand. Statistical analysis was performed by a one-way analysis of variance (ANOVA) with a significance threshold set at p < 0.05.

[2] = target: T2, equine butyrylcholinesterase (eqBChE) (Equus caballus, UniProt P81908); experiment: Butyrylcholinesterase inhibition (adapted Ellman's method); assay type: biochemical; settings: for IC50: eqBChE, read-out: BChE Inhib IC50; for SI (selectivity index): SI = IC50 (AChE)/IC50 (BChE)
T2 construct: purchased
T2 sequence (P81908 whole entry): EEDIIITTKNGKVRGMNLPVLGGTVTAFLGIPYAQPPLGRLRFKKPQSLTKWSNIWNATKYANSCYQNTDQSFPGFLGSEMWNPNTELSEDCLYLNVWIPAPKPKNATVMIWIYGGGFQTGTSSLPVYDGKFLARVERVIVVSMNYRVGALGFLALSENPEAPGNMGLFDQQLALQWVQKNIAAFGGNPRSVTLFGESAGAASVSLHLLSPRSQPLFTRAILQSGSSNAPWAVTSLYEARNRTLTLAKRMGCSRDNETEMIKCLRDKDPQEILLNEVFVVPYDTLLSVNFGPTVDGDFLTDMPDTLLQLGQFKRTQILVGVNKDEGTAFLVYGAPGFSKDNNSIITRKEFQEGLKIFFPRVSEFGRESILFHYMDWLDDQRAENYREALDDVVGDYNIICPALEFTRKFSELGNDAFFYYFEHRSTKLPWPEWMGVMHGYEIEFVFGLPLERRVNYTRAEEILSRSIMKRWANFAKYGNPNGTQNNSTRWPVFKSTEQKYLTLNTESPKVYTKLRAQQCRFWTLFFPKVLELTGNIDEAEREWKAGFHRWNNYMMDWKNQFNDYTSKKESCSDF
Protocol: as §1

[3] = tested on: SH-SY5Y human neuroblastoma cell line; experiment: Cell viability dose-response screening (MTT); assay type: cell-based; settings: 24 h
Protocol: (§2) Cell viability was assessed using the colorimetric MTT (3-(4,5-dimethylthiazol-2-yl)-2,5-diphenyltetrazolium bromide) assay, as previously described.
(§3) The compounds’ solutions (4AY1-6, 4BY1-3, and 4CY1) were prepared in DMSO to create stock solutions at a concentration of 25 mM, which were then stored at −20 °C. A concentration range from 0.5 µM to 20 µM was screened to identify the highest non-toxic dose. The SH-SY5Y human neuroblastoma cell line (ATCC-CRL-2266) was grown in Dulbecco’s modified Eagle’s medium (DMEM) (Thermo Fisher Scientific-Gibco, Waltham, MA, USA) supplemented with 10% heat-inactivated fetal calf serum, 50 U/mL penicillin, and 50 µg/mL streptomycin at 37 °C in a 5% CO2 atmosphere. The cells were seeded at a density of 0.1 × 10^6 cells/mL (when 48-well plates were used) or 0.15 × 10^6 cells/mL (when 24-well plates were used) one day before the experiment commenced. Following the seeding, the cells were treated with the selected concentrations of compounds for 24 h. After treatment, the cells were washed with PBS and incubated with 150 µL (in 48-well plates) or 200 µL (in 24-well plates) of MTT (0.5 mg/mL) for 2 h at 37 °C with 5% CO2. During this incubation, cellular dehydrogenases converted MTT into formazan crystals, which were subsequently dissolved in 150 µL (in 48-well plates) or 200 µL (in 24-well plates) of 0.04 M HCl/isopropanol, and the absorbance was measured at 570 nm.

[4] = Free-radical-scavenging assay (DPPH method); settings: for % AA (radical-scavenging activity): compound concentration 100 μM; for EC50: read-out: AA EC50
Protocol: The percentage of radical-scavenging activity (%AA, antioxidant capacity) of the RIV hybrids was first determined by the 2,2-diphenyl-1-picrylhydrazyl (DPPH) method using a compound concentration of 100 μM. […] Each calibration point was kept 30 min in darkness, and afterwards, the absorbance was measured at 517 nm. The corresponding antioxidant activity (%AA) was calculated using the equation %AA=ADPPH−Aligand/ADPPH×100. From the plot of %AA versus ligand concentration, EC50 was determined. Three independent experiments were performed, and a statistical analysis was conducted by a one-way analysis of variance (ANOVA) with the significance threshold set at p < 0.05.
The RIV hybrids were screened for their radical-scavenging activity by using the DPPH method. These assays were conducted in two stages: first, preliminary analyses were performed for all the compounds to evaluate the percentage of radical-scavenging activity by using a compound concentration of 100 μM. Afterwards, the compounds showing more than 50% antioxidant activity (AA), under those conditions, were further assessed to evaluate the respective EC50 values.

Aβ1–42 = target: T3, Aβ1–42 (Homo sapiens, UniProt P05067); experiment: Inhibition of Aβ1–42 self-aggregation (ThT fluorescence); assay type: biochemical; settings: read-out: % Aβ42 Self-Agg Inhib; for inhibition at 20 µM: 24 h
T3 construct: the Aβ1–42 peptide (Shanghai Royobiotech Co., Ltd., Shanghai, China); purchased Shanghai Royobiotech Co., Ltd
T3 sequence (P05067 672-713): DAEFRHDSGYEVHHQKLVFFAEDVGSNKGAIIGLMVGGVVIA
Protocol: Firstly, the Aβ1–42 peptide (Shanghai Royobiotech Co., Ltd., Shanghai, China) was treated with 1,1,1,3,3,3-hexafluoropropan-2-ol (HFIP) and then dissolved in a CH3CN/Na2CO3 (300 μM)/NaOH (250 μM) (48.3:48.3:4.3, v/v/v) mixture in order to obtain a stable stock solution (500 μM).
Solutions of 1 mg of the assayed compounds in 2 mL of 1:1 (v/v) DMSO/MeOH (0.5 mg/mL) medium were prepared and then properly diluted with phosphate buffer (0.215 M, pH 8.0) to obtain a 120 μM final concentration. The Aβ1–42 self-aggregation inhibition assays were made based on a reported method, involving the fluorescence emission of thioflavin T (ThT). So, Aβ1–42 (40 μM) was incubated at 37 °C for 24 h in phosphate buffer and in the presence or absence of each ligand (40 μM for all compounds but 4AY4 and 4CY1, for which 20 μM was used). Then, […] 5 μM ThT in 50 mM glycine-NaOH (pH 8.5) buffer were added to each sample before transferring the samples to a 96-well microplate. Blank samples were also prepared without Aβ1–42. The ThT fluorescence was measured (446 and 485 nm excitation and emission wavelengths, respectively), and the percent of self-aggregation inhibition was determined by the equation:I% = 100 − (IFi/IF0 × 100) where IFi and IF0 are the fluorescence intensities, in the presence and the absence of the assayed compound, subtracted from the fluorescence intensities due to the respective blanks. The calculated values were obtained as the mean ± SEM of four different experiments conducted in duplicate. Statistical analysis was performed by a one-way analysis of variance (ANOVA) with a significance threshold set at p < 0.05.

[5] = tested on: SH-SY5Y human neuroblastoma cell line; experiment: Protection against iron/ascorbate-induced toxicity (MTT); assay type: cell-based; settings: 1 h pre-treatment at highest nontoxic concentration, then 24 h with Fe/Asc
Protocol: as §2, §3
To evaluate the compounds’ protective effects against toxicity induced by Aβ1–42 or iron/ascorbate, the cells were pre-treated with each compound for one hour before adding Aβ1–42 or iron/ascorbate, followed by an additional 24-h incubation. Aβ1–42 (Bachem, Torrance, CA, USA) was prepared in sterile water to create a 443 µM stock solution and was added to the cells at a final concentration of 1 µM. Ferrous sulfate and L-ascorbic acid (Sigma Chemical Co., St. Louis, MO, USA) were introduced into the medium at final concentrations of 5 mM and 2.5 mM, respectively. […]

T1 sequence (O42275 24-633): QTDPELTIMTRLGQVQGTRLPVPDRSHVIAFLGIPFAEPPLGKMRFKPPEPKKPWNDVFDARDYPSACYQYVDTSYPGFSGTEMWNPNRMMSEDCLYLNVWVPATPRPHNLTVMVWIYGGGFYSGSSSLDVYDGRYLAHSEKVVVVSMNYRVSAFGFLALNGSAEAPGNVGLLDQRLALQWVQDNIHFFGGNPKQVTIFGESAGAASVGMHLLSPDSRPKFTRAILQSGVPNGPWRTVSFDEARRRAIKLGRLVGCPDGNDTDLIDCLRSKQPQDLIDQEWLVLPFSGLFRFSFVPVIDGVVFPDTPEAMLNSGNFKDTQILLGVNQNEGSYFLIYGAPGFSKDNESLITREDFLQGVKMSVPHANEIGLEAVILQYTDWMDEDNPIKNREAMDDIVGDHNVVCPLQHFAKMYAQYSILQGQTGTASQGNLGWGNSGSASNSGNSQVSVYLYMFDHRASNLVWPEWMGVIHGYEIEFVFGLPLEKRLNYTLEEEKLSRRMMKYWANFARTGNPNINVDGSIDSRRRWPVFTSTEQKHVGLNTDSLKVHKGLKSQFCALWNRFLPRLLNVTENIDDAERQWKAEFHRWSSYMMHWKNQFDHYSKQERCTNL

| Compound | IC50 [1] | IC50 [2] | highest nontoxic concentration [3] | % AA (radical-scavenging activity) [4] | inhibition at 20 µM (Aβ1–42) | SI (selectivity index) [2] | inhibition at 40 µM (Aβ1–42) | EC50 [4] | highest nontoxic concentration ([3]; dose given for the Aβ1–42 experiments) | highest nontoxic concentration ([3]; dose given for the iron/ascorbate experiments) | rescue of cell viability after iron/ascorbate treatment [5] |
| --- | --- | --- | --- | --- | --- | --- | --- | --- | --- | --- | --- |
| COc1cc(C(=O)Nc2cccc(OC(=O)N(C)C)c2)cc(OC)c1O [4CY1, 3-(4-Hydroxy-3,5-dimethoxybenzamido)phenyl dimethylcarbamate] | > 200 µM | 68 ± 7 µM | 5 µM | <50% | 31 ± 3% | – | – | – | – | – | – |
| CCN(C)C(=O)Oc1cccc(CNC(=O)/C=C/c2ccc3c(c2)OCO3)c1 [4BY3, (E)-3-((3-(Benzo[d][1,3]dioxol-5-yl)acrylamido)methyl)phenyl ethyl(methyl)carbamate] | 91 ± 6 µM | 0.9 ± 0.2 µM | 1 µM | <50% | – | 101 | 29 ± 3% | – | – | – | – |
| CCN(C)C(=O)Oc1cccc(NC(=O)c2cc(OC)c(O)c(OC)c2)c1 [4AY1, 3-(4-Hydroxy-3,5-dimethoxybenzamido)phenyl ethyl(methyl)carbamate] | > 200 µM | 31 ± 2 µM | 10 µM | <50% | – | – | 20 ± 2% | – | – | – | – |
| CCN(C)C(=O)Oc1cccc(NC(=O)/C=C/c2ccc3c(c2)OCO3)c1 [4AY3, (E)-3-(3-(Benzo[d][1,3]dioxol-5-yl)acrylamido)phenyl ethyl(methyl)carbamate] | 50.5 ± 0.1 µM | 3.1 ± 0.4 µM | 5 µM | <50% | – | 16.3 | 45 ± 4% | – | – | – | – |
| CCN(C)C(=O)Oc1cccc(NC(=O)/C=C/C=C/c2ccc(O)c(O)c2)c1 [4AY6, 3-((2E,4E)-5-(3,4-Dihydroxyphenyl)penta-2,4-dienamido)phenyl ethyl(methyl)carbamate] | 5 ± 1 µM | 5.7 ± 0.6 µM | 1 µM | 93.1 ± 0.8% | – | 0.9 | 75 ± 7% | 28 ± 0.4 µM | – | – | – |
| CCN(C)C(=O)Oc1cccc(NC(=O)/C=C/C=C/c2ccc3c(c2)OCO3)c1 [4AY4, 3-((2E,4E)-5-(Benzo[d][1,3]dioxol-5-yl)penta-2,4-dienamido)phenyl ethyl(methyl)carbamate] | 14.51 ± 0.04 µM | 15.2 ± 0.4 µM | – | <50% | 23 ± 3% | 0.9 | – | – | 1 µM | 2.5 µM | capable of rescuing the cell viability; also recorded: significantly improved cell viability |
| Cc1c(C)c2c(c(C)c1O)CCC(C)(C(=O)O)O2 (centres unmarked) [Trolox, 6-hydroxy-2,5,7,8-tetramethylchromane-2-carboxylic acid, reference compound] | – | – | – | – | – | – | – | 13.8 ± 0.2 µM | – | – | – |
| CCN(C)C(=O)Oc1cccc(CNC(=O)C2(C)CCc3c(C)c(O)c(C)c(C)c3O2)c1 (centres unmarked) [4BY2, 3-((6-Hydroxy-2,5,7,8-tetramethylchromane-2-carboxamido)methyl)phenyl ethyl(methyl)carbamate] | 32 ± 2 µM | 3.7 ± 0.1 µM | 1 µM | 93.9 ± 0.4% | – | 8.6 | 47 ± 3% | 20 ± 0.8 µM | – | – | capable of rescuing the cell viability; also recorded: significantly improved cell viability |
| CCN(C)C(=O)Oc1cccc(CNC(=O)c2cc(OC)c(O)c(OC)c2)c1 [4BY1, 3-((4-Hydroxy-3,5-dimethoxybenzamido)methyl)phenyl ethyl(methyl)carbamate] | > 200 µM | 75 ± 0.6 µM | 15 µM | <50% | – | – | 58 ± 6% | – | – | – | – |
| COc1cc(/C=C/C(=O)CC(=O)/C=C/c2ccc(O)c(OC)c2)ccc1O [Curcumin, reference compound] | – | – | – | – | – | – | 77 ± 1% | – | – | – | – |
| CCN(C)C(=O)Oc1cccc(NC(=O)/C=C/c2ccc(O)c(O)c2)c1 [4AY5, (E)-3-(3-(3,4-Dihydroxyphenyl)acrylamido)phenyl ethyl(methyl)carbamate] | 110 ± 5 µM | 7.2 ± 0.3 µM | 0.5 µM | 96 ± 2% | – | 15.3 | 82 ± 5% | 15.7 ± 0.4 µM | – | – | – |
